Assay results taken from publication PMC10916402, “Meropenem-ANT3310, a unique β-lactam-β-lactamase inhibitor combination with expanded antibacterial spectrum against Gram-negative pathogens including carbapenem-resistant Acinetobacter baumannii” (Antimicrobial Agents and Chemotherapy, 2024).
Values after ≈ are worked out from the molar mass of the structure shown. Read-outs that look alike come from different tables or passages of the source.

What was measured:
[1] = system: carbapenem-resistant Acinetobacter baumannii (CRAB) clinical isolates; test: Broth microdilution MIC, CRAB isolates; assay type: cell-based; conditions: for MIC50 / MIC90: Acinetobacter baumannii; for MIC50: read-out: MIC50; for MIC90: read-out: MIC90
Protocol: (§1) All isolates were randomly selected from the frozen culture collection of IHMA collected in 2018 and 2019. Matrix-assisted laser desorption ionization-time of flight mass spectrometry was used to confirm the identity of the organisms tested (Bruker Daltonics, Bremen, Germany).
(§2) MICs for all antimicrobial agents were determined at IHMA by broth microdilution in accordance with both CLSI ([17]) and EUCAST ([18]) guidelines. Microtiter panels were prepared by IHMA and stored at −70°C in cation-adjusted Mueller Hinton broth (CAMHB) (Becton Dickinson). Iron-depleted CAMHB was used to test cefiderocol. Panels containing ANT3310 were prepared fresh on the day of testing. […] MIC values corresponded to the first well with no visible growth. Quality control testing was performed on each day of testing with E. coli ATCC 25922, P. aeruginosa ATCC 27853, K. pneumoniae ATCC 700603 and BAA 1705, and A. baumannii NCTC 13304. MICs were interpreted using 2023 CLSI ([17]) and EUCAST ([18]) BPs.

[2] = system: A. baumannii clinical isolates; test: Broth microdilution MIC, A. baumannii clinical isolates; assay type: cell-based, Acinetobacter baumannii; conditions: for MIC50 / MIC90: Acinetobacter baumannii; for MIC50: read-out: MIC50; for MIC90: read-out: MIC90
Protocol: as §1, §2

[3] = system: KPC-producing Enterobacterales (KPC-CRE); test: organism not typed; assay type: cell-based
Protocol: as §1, §2

[4] = system: OXA-producing Enterobacterales (OXA-CRE); test: organism not typed; assay type: cell-based
Protocol: as §1, §2

[5] = 2019 Global collection, CRAB (MEM MICs >4 µg/mL), N 340
[6] = 2019 Global collection, CRAB, N 340, EUCAST BP
[7] = 2019 Global collection, All A. baumannii, N 405
[8] = 2019 Global collection, All A. baumannii, N 405, EUCAST BP
[9] = A. baumannii, one or both of the 2018/2019 collections
[10] = 2018 Global collection, CRAB (MEM MICs >4 µg/mL), N 363
[11] = 2018 Global collection, All A. baumannii, N 500

C[C@H]1COc2c(N3CCN(C)CC3)c(F)cc3c(=O)c(C(=O)O)cn1c23 [Levofloxacin, levofloxacin]
Number of isolates inhibited at MIC of 2 µg/mL [1, 5]: 9 | Number of isolates inhibited at MIC of 4 µg/mL [1, 5]: 29 | Number of isolates inhibited at MIC of 8 µg/mL [1, 5]: 92 | Number of isolates inhibited at MIC of 16 µg/mL [1, 5]: 97 | CLSI % Res ([1]; 2019 Global collection, CRAB, N 340, CLSI BP, for MEM-ANT3310 % at ≥16 µg/mL): 86.2% | CLSI % Sus ([1]; 2019 Global collection, CRAB, N 340, CLSI BP, for MEM-ANT3310 % inhibited at ≤8 µg/mL): 5.3% | EUCAST % Res [1, 6]: 97.3% | EUCAST % Sus [1, 6]: 2.7% | Number of isolates inhibited at MIC of >16 µg/mL ([1]; 2019 Global collection, CRAB, N 340, footnote c): 104^c | Number of isolates inhibited at MIC of ≤0.25 µg/mL ([1]; 2019 Global collection, CRAB, N 340, footnote d): 9^d | MIC50 [1, 5]: 16 µg/mL (≈ 44.3 µM) | MIC90 [1, 5]: > 16 µg/mL | Number of isolates inhibited at MIC of 0.5 µg/mL [2, 7]: 1 | Number of isolates inhibited at MIC of 1 µg/mL [2, 7]: 1 | Number of isolates inhibited at MIC of 2 µg/mL [2, 7]: 10 | Number of isolates inhibited at MIC of 4 µg/mL [2, 7]: 33 | Number of isolates inhibited at MIC of 8 µg/mL [2, 7]: 96 | Number of isolates inhibited at MIC of 16 µg/mL [2, 7]: 99 | CLSI % Res ([2]; 2019 Global collection, All A. baumannii, N 405, CLSI BP, for MEM-ANT3310 % at ≥16 µg/mL): 73.8% | CLSI % Sus ([2]; 2019 Global collection, All A. baumannii, N 405, CLSI BP, for MEM-ANT3310 % inhibited at ≤8 µg/mL): 18% | EUCAST % Res [2, 8]: 84.4% | EUCAST % Sus [2, 8]: 15.3% | Number of isolates inhibited at MIC of >16 µg/mL ([2]; 2019 Global collection, All A. baumannii, N 405, footnote c): 104^c | Number of isolates inhibited at MIC of ≤0.25 µg/mL ([2]; 2019 Global collection, All A. baumannii, N 405, footnote d): 61^d | MIC50 [2, 7]: 16 µg/mL (≈ 44.3 µM) | MIC90 [2, 7]: > 16 µg/mL | MIC90 [2, 9]: ≥ 32 µg/mL

CN(C)[C@@H]1C(O)=C(C(N)=O)C(=O)[C@@]2(O)C(O)=C3C(=O)c4c(O)c(NC(=O)CN5CCCC5)cc(F)c4C[C@H]3C[C@@H]12 [Eravacycline, eravacycline]
MIC50 [3]: 0.5 µg/mL (≈ 0.895 µM) | MIC90 [3]: 2 µg/mL (≈ 3.58 µM) | MIC50 [4]: 1 µg/mL (≈ 1.79 µM) | MIC90 [4]: 2 µg/mL (≈ 3.58 µM) | Number of isolates inhibited at MIC of 0.25 µg/mL [1, 10]: 43 | Number of isolates inhibited at MIC of 0.5 µg/mL [1, 10]: 73 | Number of isolates inhibited at MIC of 1 µg/mL [1, 10]: 186 | Number of isolates inhibited at MIC of 2 µg/mL [1, 10]: 53 | Number of isolates inhibited at MIC of 4 µg/mL [1, 10]: 3 | Number of isolates inhibited at MIC of ≤0.125 µg/mL [1, 10]: 5 | MIC50 [1, 10]: 1 µg/mL (≈ 1.79 µM) | MIC90 [1, 10]: 2 µg/mL (≈ 3.58 µM) | Number of isolates inhibited at MIC of 0.25 µg/mL [2, 11]: 66 | Number of isolates inhibited at MIC of 0.5 µg/mL [2, 11]: 83 | Number of isolates inhibited at MIC of 1 µg/mL [2, 11]: 194 | Number of isolates inhibited at MIC of 2 µg/mL [2, 11]: 55 | Number of isolates inhibited at MIC of 4 µg/mL [2, 11]: 3 | Number of isolates inhibited at MIC of ≤0.125 µg/mL [2, 11]: 99 | MIC50 [2, 11]: 1 µg/mL (≈ 1.79 µM) | MIC90 [2, 11]: 2 µg/mL (≈ 3.58 µM) | MIC90 [2, 9]: 2 µg/mL (≈ 3.58 µM)
